Data taken from PubChem BioAssay AID328 (DTP/NCI, 2004).
Where “and” joins values, the source holds several entries; their conditions need not be identical. Equal entries are not always repeated. Inconclusive results and toxic doses are left out. Starred links: 1 amine or outer side, 2 acyl side, 3 side chain; linkers in the order of their positions; H or OH if unused. Positions of bridges follow the written chain, without caps; N, C: chain ends. Non-standard residues stand in square brackets, D forms with d. Residues, ends and D or L forms follow the SMILES beside them. Chains are numbered I, II in the order given. Actinocin(1to9) = Cc1c2oc3c(C)ccc(C(=O)[*:2])c3nc-2c(C(=O)[*:1])c(N)c1=O; NMeV = CN[CH](C(=O)O)C(C)C; Aze = O=C(O)[CH]1CCN1; Sar = CNCC(=O)O

System: BDF1 mice, P388 leukemia ip, median survival T/C
Test: NCI In Vivo Anticancer Drug Screen. Data for tumor model P388 Leukemia (intraperitoneal) in B6D2F1 (BDF1) mice
Conditions: endpoint: median survival time, higher = longer survival
Procedure, shortened: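 In tumour-bearing mice, survival after compound treatment is set against the vehicle group and given as a quotient.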

[1] = dose: 100.0 mg/kg/injection, schedule: Q01DX009 (ip), vehicle: saline
[2] = dose: 100.0 mg/kg/injection, schedule: Q04DX003 (ip), vehicle: Klucel (hydroxypropylcellulose) (HPC)
[3] = dose: 200.0 mg/kg/injection, schedule: Q04DX003 (ip), vehicle: Klucel (hydroxypropylcellulose) (HPC)
[4] = dose: 400.0 mg/kg/injection, schedule: Q04DX003 (ip), vehicle: Klucel (hydroxypropylcellulose) (HPC)
[5] = dose: 200.0 mg/kg/injection, schedule: Q01DX009 (ip), vehicle: saline
[6] = dose: 400.0 mg/kg/injection, schedule: Q01DX009 (ip), vehicle: saline

Question: With `COc1cc(NS(C)(=O)=O)ccc1Nc1c2ccc([N+](=O)[O-])cc2nc2c(C)cccc12` as the molecule, how does the T/C (dose: 0.1 mg/kg/injection, schedule: Q04DX003 (ip), vehicle: saline with Tween-80) read?
Answer: 112 % of control

Question: And the T/C (dose: 0.2 mg/kg/injection, schedule: Q04DX003 (ip), vehicle: saline with Tween-80)?
Answer: 120 % of control

Question: What about the T/C (dose: 0.86 mg/kg/injection, schedule: Q04DX003 (ip), vehicle: saline with Tween-80) of the same molecule?
Answer: 200 % of control

Question: And the T/C (dose: 1.3 mg/kg/injection, schedule: Q04DX003 (ip), vehicle: saline with Tween-80)?
Answer: 165 % of control

Question: What about the T/C (dose: 2.0 mg/kg/injection, schedule: Q04DX003 (ip), vehicle: saline with Tween-80) of the same molecule?
Answer: 184 % of control

Question: And the T/C (dose: 3.0 mg/kg/injection, schedule: Q04DX003 (ip), vehicle: saline with Tween-80)?
Answer: 230 % of control and 204 % of control

Question: What about the T/C (dose: 5.0 mg/kg/injection, schedule: Q04DX003 (ip), vehicle: saline with Tween-80) of the same molecule?
Answer: 241 % of control

Question: What about the T/C (dose: 8.0 mg/kg/injection, schedule: Q04DX003 (ip), vehicle: saline with Tween-80) of the same molecule?
Answer: 230 % of control and 241 % of control

Question: What about the T/C (dose: 12.0 mg/kg/injection, schedule: Q04DX003 (ip), vehicle: saline with Tween-80) of the same molecule?
Answer: 230 % of control

Question: And the T/C (dose: 18.0 mg/kg/injection, schedule: Q04DX003 (ip), vehicle: saline with Tween-80)?
Answer: 123 % of control

Question: For `NC(Cc1ccccc1Cl)c1nn[nH]n1` (centres undefined), which T/C (dose: 50.0 mg/kg/injection, schedule: Q04DX002 (ip), vehicle: saline with Tween-80) is on record?
Answer: 100 % of control

Question: And the T/C (dose: 200.0 mg/kg/injection, schedule: Q04DX002 (ip), vehicle: saline with Tween-80)?
Answer: 121 % of control

Question: For `CCOC(=O)C(C(C)=O)C(c1ccc([N+](=O)[O-])cc1)C(C(C)=O)C(=O)OCC` (centres undefined), which T/C (dose: 0.78 mg/kg/injection, schedule: Q04DX003 (ip), vehicle: saline) is on record?
Answer: 117 % of control

Question: What about the T/C (dose: 1.56 mg/kg/injection, schedule: Q04DX003 (ip), vehicle: saline) of the same molecule?
Answer: 114 % of control

Question: And the T/C (dose: 3.12 mg/kg/injection, schedule: Q01DX009 (ip), vehicle: saline)?
Answer: 108 % of control

Question: What about the T/C (dose: 3.12 mg/kg/injection, schedule: Q04DX003 (ip), vehicle: saline) of the same molecule?
Answer: 104 % of control

Question: And the T/C (dose: 6.25 mg/kg/injection, schedule: Q01DX009 (ip), vehicle: saline)?
Answer: 106 % of control

Question: What about the T/C (dose: 6.25 mg/kg/injection, schedule: Q04DX003 (ip), vehicle: saline) of the same molecule?
Answer: 99 % of control

Question: What about the T/C (dose: 12.5 mg/kg/injection, schedule: Q01DX009 (ip), vehicle: saline) of the same molecule?
Answer: 100 % of control

Question: And the T/C (dose: 12.5 mg/kg/injection, schedule: Q04DX003 (ip), vehicle: saline)?
Answer: 111 % of control

Question: What about the T/C (dose: 25.0 mg/kg/injection, schedule: Q01DX009 (ip), vehicle: saline) of the same molecule?
Answer: 92 % of control

Question: What about the T/C (dose: 25.0 mg/kg/injection, schedule: Q04DX003 (ip), vehicle: saline) of the same molecule?
Answer: 99 % of control

Question: What about the T/C (dose: 50.0 mg/kg/injection, schedule: Q01DX009 (ip), vehicle: saline) of the same molecule?
Answer: 89 % of control

Question: What about the T/C [1] of the same molecule?
Answer: 93 % of control

Question: How did the T/C (dose: 11.0 mg/kg/injection, schedule: Q01DX009 (ip), vehicle: saline) turn out when `COC(=O)C1c2cc3c(c(O)c2CCC1(C)O)C(=O)c1c(O)cc2c(c1C3=O)OC1OC2(C)C(O)C(N(C)C)C1O` (centres undefined) was run?
Answer: 113 % of control

Question: What about the T/C (dose: 200.0 mg/kg/injection, schedule: Q01DX010 (ip), vehicle: saline) of the same molecule?
Answer: 105 % of control

Question: What does the source list for `Cc1c2oc3c(C)ccc(C(=O)NC4C(=O)NC(C(C)C)C(=O)N5CCCC5C(=O)N(C)CC(=O)N(C)C(C(C)C)C(=O)OC4C)c3nc-2c(C(=O)NC2C(=O)NC(C(C)C)C(=O)N3CCC3C(=O)N(C)CC(=O)N(C)C(C(C)C)C(=O)OC2C)c(N)c1=O` (centres undefined) (I: TV[Aze][Sar][NMeV] / II: TVP[Sar][NMeV]; ester I:1-I:C, II:1-II:C; linker I:N-II:N via Actinocin(1to9); configuration not given here)?
Answer: T/C (dose: 0.26 mg/kg/injection, schedule: Q04DX003 (ip), vehicle: saline): 201 % of control; T/C (dose: 0.3 mg/kg/injection, schedule: Q04DX003 (ip), vehicle: saline + alcohol): 265 % of control and 168 % of control; T/C (dose: 0.4 mg/kg/injection, schedule: Q04DX003 (ip), vehicle: saline): 250 % of control; T/C (dose: 0.45 mg/kg/injection, schedule: Q04DX003 (ip), vehicle: saline + alcohol): 256 % of control and 223 % of control; T/C (dose: 0.6 mg/kg/injection, schedule: Q04DX003 (ip), vehicle: saline + alcohol): 230 % of control and 159 % of control; T/C (dose: 0.6 mg/kg/injection, schedule: Q04DX003 (ip), vehicle: saline): 373 % of control; T/C (dose: 0.9 mg/kg/injection, schedule: Q04DX003 (ip), vehicle: saline + alcohol): 123 % of control and 219 % of control; T/C (dose: 0.9 mg/kg/injection, schedule: Q04DX003 (ip), vehicle: saline): 551 % of control; T/C (dose: 1.2 mg/kg/injection, schedule: Q04DX003 (ip), vehicle: saline + alcohol): 97 % of control and 117 % of control; T/C (dose: 1.3 mg/kg/injection, schedule: Q04DX003 (ip), vehicle: saline): 551 % of control; T/C (dose: 12.5 micrograms/kg/injection, schedule: Q01DX009 (ip), vehicle: saline + alcohol): 197 % of control; T/C (dose: 25.0 micrograms/kg/injection, schedule: Q01DX009 (ip), vehicle: saline + alcohol): 218 % of control; T/C (dose: 50.0 micrograms/kg/injection, schedule: Q01DX009 (ip), vehicle: saline + alcohol): 263 % of control; T/C (dose: 75.0 micrograms/kg/injection, schedule: Q04DX003 (ip), vehicle: saline + alcohol): 205 % of control; T/C (dose: 100.0 micrograms/kg/injection, schedule: Q01DX009 (ip), vehicle: saline + alcohol): 270 % of control; T/C (dose: 112.5 micrograms/kg/injection, schedule: Q01DX009 (ip), vehicle: saline + alcohol): 265 % of control; T/C (dose: 150.0 micrograms/kg/injection, schedule: Q01DX009 (ip), vehicle: saline + alcohol): 212 % of control; T/C (dose: 150.0 micrograms/kg/injection, schedule: Q04DX003 (ip), vehicle: saline + alcohol): 226 % of control and 153 % of control; T/C (dose: 200.0 micrograms/kg/injection, schedule: Q01DX009 (ip), vehicle: saline + alcohol): 622 % of control; T/C (dose: 225.0 micrograms/kg/injection, schedule: Q01DX009 (ip), vehicle: saline + alcohol): 105 % of control; T/C (dose: 300.0 micrograms/kg/injection, schedule: Q01DX009 (ip), vehicle: saline + alcohol): 95 % of control; T/C (dose: 300.0 micrograms/kg/injection, schedule: Q04DX003 (ip), vehicle: saline + alcohol): 250 % of control and 197 % of control; T/C (dose: 450.0 micrograms/kg/injection, schedule: Q01DX009 (ip), vehicle: saline + alcohol): 94 % of control; T/C (dose: 600.0 micrograms/kg/injection, schedule: Q04DX003 (ip), vehicle: saline + alcohol): 385 % of control and 388 % of control; T/C (dose: 1200.0 micrograms/kg/injection, schedule: Q04DX003 (ip), vehicle: saline + alcohol): 104 % of control

Question: How did the T/C (dose: 100.0 mg/kg/injection, schedule: Q01DX009 (ip), vehicle: Klucel (hydroxypropylcellulose) (HPC)) turn out when `CN(C)c1ccc(/C=C/c2nc3ccccc3s2)cc1` was run?
Answer: 100 % of control

Question: And the T/C [2]?
Answer: 112 % of control

Question: What about the T/C (dose: 200.0 mg/kg/injection, schedule: Q01DX009 (ip), vehicle: Klucel (hydroxypropylcellulose) (HPC)) of the same molecule?
Answer: 109 % of control

Question: And the T/C [3]?
Answer: 108 % of control

Question: What about the T/C (dose: 400.0 mg/kg/injection, schedule: Q01DX009 (ip), vehicle: Klucel (hydroxypropylcellulose) (HPC)) of the same molecule?
Answer: 109 % of control

Question: And the T/C [4]?
Answer: 100 % of control

Question: For `C=C(C)C(=O)OC1CCCCC1`, which T/C [1] is on record?
Answer: 111 % of control

Question: And the T/C [5]?
Answer: 100 % of control

Question: What about the T/C [6] of the same molecule?
Answer: 117 % of control

Question: What does the source list for `COc1ccc(CCN2C(=O)CSC2=S)cc1OC`?
Answer: T/C (dose: 100.0 mg/kg/injection, schedule: Q01DX001 (ip), vehicle: Klucel (hydroxypropylcellulose) (HPC)): 90 % of control; T/C (dose: 200.0 mg/kg/injection, schedule: Q01DX001 (ip), vehicle: Klucel (hydroxypropylcellulose) (HPC)): 100 % of control; T/C (dose: 400.0 mg/kg/injection, schedule: Q01DX001 (ip), vehicle: Klucel (hydroxypropylcellulose) (HPC)): 90 % of control

Question: How did the T/C [2] turn out when `CC(=O)O[C@H]1CC[C@@]2(C)C(=CC[C@H]3[C@@H]4CC[C@H](O)[C@@]4(C)CC[C@@H]32)C1` was run?
Answer: 104 % of control

Question: And the T/C [3]?
Answer: 100 % of control

Question: And the T/C [4]?
Answer: 90 % of control

Question: How did the T/C [1] turn out when `NCC1OC(OC2C(CO)OC(OC3C(O)C(N)CC(N)C3OC3OC(CO)C(O)C(O)C3N)C2O)C(N)C(O)C1O` (centres undefined) was run?
Answer: 104 % of control

Question: And the T/C [5]?
Answer: 106 % of control

Question: And the T/C [6]?
Answer: 97 % of control
